# Results published in article PMC5762204 (Journal of Pharmaceutical Analysis, 2014).
# Test: Pharmacokinetic study in rats after oral administration
# Type: in vivo
# Settings: male, Wistar, rat, plasma
Tmax [min],half-life [min],SMILES
45,336 ± 6,"CCC(C)(C)C(=O)O[C@H]1C[C@@H](C)C=C2C=C[C@H](C)[C@H](CC[C@@H]3C[C@@H](O)CC(=O)O3)[C@H]21 [Simvastatin, simvastatin]"
60,366 ± 12,"N[C@@H](CC(=O)N1CCn2c(nnc2C(F)(F)F)C1)Cc1cc(F)c(F)cc1F [Sitagliptin, sitagliptin]"
